# Data published in PubChem BioAssay AID1963961 (Molecular Pharmacology Branch, DTP, NCI, 2024).
# pIC50: −log10 of the molar value.
# Test system: K98450-129-R-PDC multicell spheroids, viability
# Test: Anticancer human tumor K98450-129-R-PDC patient-derived colon adenocarcinoma cell line growth inhibition [PI3K]
# Conditions: for viability, T/C: stronger effect = lower value
# Method in brief: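 Complex 3D spheroids (cancer cells + endothelial HUVEC + mesenchymal stem cells); drug pairs of targeted agent x inavolisib/alpelisib/duvelisib/copanlisib; half-log series from ~Cmax, max 10 microM if Cmax unknown; endpoint viability.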
# 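Note: spheroids exposed to agents for seven days before read-out.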
compound,measurement,setting,value
C#Cc1c(F)ccc2cc(O)cc(-c3ncc4c(N5CC6CCC(C5)N6)nc(OCC56CCCN5CC(F)C6)nc4c3F)c12 (centres undefined) + CC(Nc1ccc2c(c1)OCCn1cc(N3C(=O)OCC3C(F)F)nc1-2)C(N)=O,pIC50,"curve of first compound, second compound 0.00316 µM",< 5.00
same,pIC50,"curve of first compound, second compound 0.01 µM",< 5.00
same,pIC50,"curve of first compound, second compound 0.0316 µM",< 5.00
same,pIC50,"curve of first compound, second compound 0.1 µM",< 5.00
same,pIC50,"curve of first compound, second compound 0.316 µM",< 5.00
same,pIC50,"curve of first compound, second compound 1 µM",< 5.00
same,"viability, T/C","second compound 0.00316 µM, first compound 0.0316 µM",116%
same,"viability, T/C","second compound 0.00316 µM, first compound 0.1 µM",101%
same,"viability, T/C","second compound 0.00316 µM, first compound 0.316 µM",104%
same,"viability, T/C","second compound 0.00316 µM, first compound 1 µM",96.2%
same,"viability, T/C","second compound 0.00316 µM, first compound 3.16 µM",101%
same,"viability, T/C","second compound 0.00316 µM, first compound 10 µM",92.7%
same,"viability, T/C","second compound 0.01 µM, first compound 0.0316 µM",113%
same,"viability, T/C","second compound 0.01 µM, first compound 0.1 µM",92.1%
same,"viability, T/C","second compound 0.01 µM, first compound 0.316 µM",109%
same,"viability, T/C","second compound 0.01 µM, first compound 1 µM",95.2%
same,"viability, T/C","second compound 0.01 µM, first compound 3.16 µM",91.9%
same,"viability, T/C","second compound 0.01 µM, first compound 10 µM",91.3%
same,"viability, T/C","second compound 0.0316 µM, first compound 0.0316 µM",104%
same,"viability, T/C","second compound 0.0316 µM, first compound 0.1 µM",100%
same,"viability, T/C","second compound 0.0316 µM, first compound 0.316 µM",103%
same,"viability, T/C","second compound 0.0316 µM, first compound 1 µM",91.2%
same,"viability, T/C","second compound 0.0316 µM, first compound 3.16 µM",98.5%
same,"viability, T/C","second compound 0.0316 µM, first compound 10 µM",87.7%
same,"viability, T/C","second compound 0.1 µM, first compound 0.0316 µM",101%
same,"viability, T/C","second compound 0.1 µM, first compound 0.1 µM",106%
same,"viability, T/C","second compound 0.1 µM, first compound 0.316 µM",97%
same,"viability, T/C","second compound 0.1 µM, first compound 1 µM",99.9%
same,"viability, T/C","second compound 0.1 µM, first compound 3.16 µM",97.5%
same,"viability, T/C","second compound 0.1 µM, first compound 10 µM",91.5%
same,"viability, T/C","second compound 0.316 µM, first compound 0.0316 µM",88.6%
same,"viability, T/C","second compound 0.316 µM, first compound 0.1 µM",93%
same,"viability, T/C","second compound 0.316 µM, first compound 0.316 µM",99.4%
same,"viability, T/C","second compound 0.316 µM, first compound 1 µM",89.1%
same,"viability, T/C","second compound 0.316 µM, first compound 3.16 µM",99.1%
same,"viability, T/C","second compound 0.316 µM, first compound 10 µM",77.8%
same,"viability, T/C","second compound 1 µM, first compound 0.0316 µM",86%
same,"viability, T/C","second compound 1 µM, first compound 0.1 µM",92.3%
same,"viability, T/C","second compound 1 µM, first compound 0.316 µM",92.6%
same,"viability, T/C","second compound 1 µM, first compound 1 µM",86.4%
same,"viability, T/C","second compound 1 µM, first compound 3.16 µM",88.6%
same,"viability, T/C","second compound 1 µM, first compound 10 µM",72.8%
CC(Nc1ncnc2nc[nH]c12)c1cc2cccc(Cl)c2c(=O)n1-c1ccccc1 (centres undefined),"viability, T/C",compound 0.0316 µM,105% [middle of 8 runs]
same,"viability, T/C",compound 0.1 µM,98.9% [middle of 8 runs]
same,"viability, T/C",compound 0.316 µM,103% [middle of 8 runs]
same,"viability, T/C",compound 1 µM,99.9% [middle of 8 runs]
same,"viability, T/C",compound 3.16 µM,105% [middle of 8 runs]
same,"viability, T/C",compound 10 µM,97.6% [middle of 8 runs]
same,pIC50,"compound alone, run of 04/25/2023",< 5.00
